Drawing on patent US20090093454A1, “Chemical Compounds” (priority 2005, published 2009), this text covers IC50 for 21 molecules.

In this assay the test system is HIV-1. Put plainly: HIV infectivity assay (Table 2, strain not given). In kind it is cell-based. The note with it: Human immunodeficiency virus 1, read-out: Activity Level. As to the method: Compounds were profiled against two HIV-1 viruses, the M-tropic (CCR5 utilizing) Ba-L strain and the T-tropic (CXCR4 utilizing) IIIB strain. Both viruses were propagated in human peripheral blood lymphocytes. Compounds were tested for there ability to block infection of the HOS cell line (expressing hCXCR4/hCCR5/hCD4/pHIV-LTR-luciferase) by either HIV-1 Ba-L or HIV-1, IIIB. Compound cytotoxicity was also examined in the absence of virus addition.
HOS cells (expressing hCXCR4/hCCR5/hCD4/pHIV-LTR-luciferase) were harvested and diluted in Dulbeccos modified Eagles media supplemented with 2% FCS and non-essential amino acid to a concentration of 60,000 cells/ml. The cells were plated into 96-well plates (100 ul per well) and the plates were placed in a tissue culture incubator (37° C.; 5% CO2/95% air) for a period of 24 h.
Subsequently, 50 ul of the desired drug solution (4 times the final concentration) was added to each well and the plates were returned to the tissue culture incubator (37° C.; 5% CO2/95% air) for 1 h. Following this incubation 50 ul of diluted virus was added to each well (approximately 2 million RLU per well of virus). The plates were returned to the tissue culture incubator (37° C.; 5% CO2/95% air) and were incubated for a further 96 h.
Following this incubation the endpoint for the virally infected cultures was quantified following addition of Steady-Glo Luciferase assay system reagent (Promega, Madison, Wis.). Cell viability or non-infected cultures was measured using a CellTiter-Glo luminescent cell viability assay system (Promega, Madison, Wis.). All luminescent readouts are performed on a Topcount luminescence detector (Packard, Meridien, Conn.).
Compounds were profiled against two HIV-1 viruses, the M-tropic (CCR5 utilizing) Ba-L strain and the T-tropic (CXCR4 utilizing) IIIB strain. Ba-L was propagated in either peripheral blood lymphocytes or SupT1/CCR5+/CXCR4+ cells. IIIB was propagated in peripheral blood lymphocytes. Compounds were tested for their ability to block infection of the HOS cell line (expressing hCXCR4/hCCR5/hCD4/pHIV-LTR-luciferase) by either HIV-1 Ba-L or HIV-1, IIIB. Compound cytotoxicity was also examined in the absence of virus addition.
HOS cells (expressing hCXCR4/hCCR5/hCD4/pHIV-LTR-luciferase) were harvested and diluted in Dulbeccos modified Eagles media supplemented with 2% FCS to a concentration of 120,000 cells/ml. The cells were plated into 96-well plates (50 μl per well) and the plates were placed in a tissue culture incubator (370° C.; 5% CO2/95% air) for a period of 24 h.
Subsequently, 50 μl of the desired drug solution (2 times the final concentration) was added to each well and the plates were returned to the tissue culture incubator (370° C.; 5% CO2/95% air) for 1 h. Following this incubation, 60 μl of diluted virus (4 times the final concentration) was added to 60 μl of 2× the final desired concentration of the compound and 100 μl of this compound/virus mix was added to each well (approximately 2 million RLU per well of virus). The plates were returned to the tissue culture incubator (370° C.; 5% CO2/95% air) and were incubated for a further 96 h.
Consider `CN1CCN(c2cccc3nc(CN4CCC[C@H]5CCc6cccnc6[C@H]54)c(CN4CCCC4)n23)CC1` [Example 58, (4aR,10bS)-1-{[5-(4-methyl-1-piperazinyl)-3-(1-pyrrolidinylmethyl)imidazo[1,2-a]pyridin-2-yl]methyl}-1,2,3,4,4a,5,6,10b-octahydro-1,10-phenanthroline], for which the IC50 is < 100 nM. For the molecule `c1ccc(Cn2ccnc2Cn2c(CN3CCC[C@@H]4CCc5cccnc5[C@H]43)nc3ccccc32)cc1` (relative stereo) [Example 46, (trans) 1-[(1-{[1-(phenylmethyl)-1H-imidazol-2-yl]methyl}-1H-benzimidazol-2-yl)methyl]-1,2,3,4,4a,5,6,10b-octahydro-1,10-phenanthroline], the IC50 lay within 500 to 10000 nM. Consider `c1cnc2c(c1)CC[C@@H]1CCCN(Cc3cn4c(N5CCC(C6CCN(c7cccc8nc(CC9CCC[C@H]%10CCc%11cccnc%11[C@@H]9%10)cn78)CC6)CC5)cccc4n3)[C@H]21` (stereo partly drawn) [Example 76b, (4aR,10bS)-1-{[5-(1′-{2-[(6aS,10aR)-5,6,6a,7,8,9,10,10a-octahydrobenzo[h]quinolin-10-ylmethyl]imidazo[1,2-a]pyridin-5-yl}-4,4′-bipiperidin-1-yl)imidazo[1,2-a]pyridin-2-yl]methyl}-1,2,3,4,4a,5,6,10b-octahydro-1,10-phenanthroline], for which the IC50 lay within 500 to 10000 nM. For `CCN(CC)Cc1c(CN2CCC[C@H]3CCc4cccnc4[C@H]32)nc2cccc(N3CCN(C)CC3)n12` [Example 55, N-ethyl-N-{[2-[(4aR,10bS)-3,4,4a,5,6,10b-hexahydro-1,10-phenanthrolin-1(2H)-ylmethyl]-5-(4-methyl-1-piperazinyl)imidazo[1,2-a]pyridin-3-yl]methyl}ethanamine] the value was < 100 nM; for `c1ccc(N2CCN(c3cccc4nc(CN5CCC[C@H]6CCc7cccnc7[C@H]65)cn34)CC2)nc1` [Example 80, (4aR,10bS)-1-({5-[4-(2-pyridinyl)-1-piperazinyl]imidazo[1,2-a]pyridin-2-yl}methyl)-1,2,3,4,4a,5,6,10b-octahydro-1,10-phenanthroline], 100 to 500 nM. For `C[C@@H]1CN(c2cccc3nc(CN4CCC[C@H]5CCc6cccnc6[C@H]54)cn23)C[C@H](C)N1` [Example 77, (4aR,10bS)-1-({5-[(3R,5S)-3,5-dimethyl-1-piperazinyl]imidazo[1,2-a]pyridin-2-yl}methyl)-1,2,3,4,4a,5,6,10b-octahydro-1,10-phenanthroline] the value was < 100 nM.

As to `NCCCCn1c(CN2CCC[C@@H]3CCc4cccnc4[C@H]32)nc2ccccc21` (relative stereo) [Example 37, (trans) 4-[2-(3,4,4a,5,6,10b-hexahydro-1,10-phenanthrolin-1(2H)-ylmethyl)-1H-benzimidazol-1-yl]-1-butanamine], the IC50 is < 100 nM. For `c1cnc2c(c1)CC[C@@H]1CCCN(Cc3cn4c(N5CCCNCC5)cccc4n3)[C@H]21` [Example 87, (4aR,10bS)-1-{[5-(hexahydro-1H-1,4-diazepin-1-yl)imidazo[1,2-a]pyridin-2-yl]methyl}-1,2,3,4,4a,5,6,10b-octahydro-1,10-phenanthroline] the value was < 100 nM; for `c1cnc2c(c1)CC[C@@H]1CCCN(Cc3cn4c(N5CCSCC5)cccc4n3)[C@H]21` [Example 78, (4aR,10bS)-1-{[5-(4-thiomorpholinyl)imidazo[1,2-a]pyridin-2-yl]methyl}-1,2,3,4,4a,5,6,10b-octahydro-1,10-phenanthroline], 100 to 500 nM.

For `CN1CCCN(c2cccc3nc(CN4CCC[C@H]5CCc6cccnc6[C@H]54)cn23)CC1` [Example 93, (4aR,10bS)-1-{[5-(4-methylhexahydro-1H-1,4-diazepin-1-yl)imidazo[1,2-a]pyridin-2-yl]methyl}-1,2,3,4,4a,5,6,10b-octahydro-1,10-phenanthroline], the IC50 is < 100 nM. For the molecule `CNC1CCN(c2cccc3nc(CN4CCC[C@H]5CCc6cccnc6[C@H]54)cn23)C1` (stereo partly drawn) [Example 95, 1-{2-[(4aR,10bS)-3,4,4a,5,6,10b-hexahydro-1,10-phenanthrolin-1(2H)-ylmethyl]imidazo[1,2-a]pyridin-5-yl}-N-methyl-3-pyrrolidinamine], the IC50 is < 100 nM. For `c1cnc2c(c1)CC[C@@H]1CCCN(Cc3cn4c(NC[C@@H]5CCCNC5)cccc4n3)[C@H]21` [Example 113, 2-[(4aR,10bS)-3,4,4a,5,6,10b-hexahydro-1,10-phenanthrolin-1(2H)-ylmethyl]-N-[(3R)-3-piperidinylmethyl]imidazo[1,2-a]pyridin-5-amine] the value was < 100 nM; for `NCCCCn1c(CN2CCC[C@H]3CCc4cccnc4[C@H]32)nc2ccccc21` (racemic) [Example 38, (cis) 4-[2-(3,4,4a,5,6,10b-hexahydro-1,10-phenanthrolin-1(2H)-ylmethyl)-1H-benzimidazol-1-yl]-1-butanamine], 100 to 500 nM; for `c1cnc2c(c1)CC[C@@H]1CCCN(Cc3nc4ccccc4n3C[C@H]3CCCNC3)[C@H]21` [Example 64, (4aR,10bS)-1-({1-[(3S)-3-piperidinylmethyl]-1H-benzimidazol-2-yl}methyl)-1,2,3,4,4a,5,6,10b-octahydro-1,10-phenanthroline], < 100 nM. Next, `c1cnc2c(c1)CC[C@@H]1CCCN(Cc3cn4c(N5CCC(N6CCCCC6)CC5)cccc4n3)[C@H]21` [Example 71, (4aR,10bS)-1-{[5-(1,4′-bipiperidin-1′-yl)imidazo[1,2-a]pyridin-2-yl]methyl}-1,2,3,4,4a,5,6,10b-octahydro-1,10-phenanthroline]: < 100 nM. For `C[C@H]1CCCN1c1cccc2nc(CN3CCC[C@H]4CCc5cccnc5[C@H]43)cn12` [Example 111, (4aR,10bS)-1-({5-[(2S)-2-methyl-1-pyrrolidinyl]imidazo[1,2-a]pyridin-2-yl}methyl)-1,2,3,4,4a,5,6,10b-octahydro-1,10-phenanthroline] the value was 100 to 500 nM. Turning to `c1ccc(Cn2c(CN3CCC[C@H]4CCc5cccnc5[C@H]43)nc3ccccc32)nc1` (racemic) [Example 45, (cis) 1-{[1-(2-pyridinylmethyl)-1H-benzimidazol-2-yl]methyl}-1,2,3,4,4a,5,6,10b-octahydro-1,10-phenanthroline], the IC50 was in the range of 500 to 10000 nM. Turning to `C[C@@H]1CN[C@@H](C)CN1c1cccc2nc(CN3CCC[C@H]4CCc5cccnc5[C@H]43)cn12` [Example 79, (4aR,10bS)-1-({5-[(2R,5S)-2,5-dimethyl-1-piperazinyl]imidazo[1,2-a]pyridin-2-yl}methyl)-1,2,3,4,4a,5,6,10b-octahydro-1,10-phenanthroline], the IC50 was < 100 nM. Turning to `NC1CCN(c2cccc3nc(CN4CCC[C@H]5CCc6cccnc6[C@H]54)cn23)CC1` [Example 89, 1-{2-[(4aR,10bS)-3,4,4a,5,6,10b-hexahydro-1,10-phenanthrolin-1(2H)-ylmethyl]imidazo[1,2-a]pyridin-5-yl}-4-piperidinamine], the IC50 was < 100 nM. Next, `CN1CCN(c2cccc3nc(CN4CCC[C@H]5CCc6cccnc6[C@H]54)c(CN4CCCCC4)n23)CC1` [Example 57, (4aR,10bS)-1-{[5-(4-methyl-1-piperazinyl)-3-(1-piperidinylmethyl)imidazo[1,2-a]pyridin-2-yl]methyl}-1,2,3,4,4a,5,6,10b-octahydro-1,10-phenanthroline]: < 100 nM; `CN1CCN(c2cccc3nc(CN4CCC[C@H]5CCc6cccnc6[C@H]54)n(C)c23)CC1` [Example 134, (4aR,10bS)-1-{[1-methyl-7-(4-methyl-1-piperazinyl)-1H-benzimidazol-2-yl]methyl}-1,2,3,4,4a,5,6,10b-octahydro-1,10-phenanthroline]: < 100 nM.
